Measurements reported in ChEMBL document CHEMBL1143686, “Alkylation potency and protein specificity of aromatic urea derivatives and bioisosteres as potential irreversible antagonists of the colchicine-binding site” (2007).
Activity calls are given as the source filed them. The calls are words filed in the database; no cut-off is given here.

Assays:
MCF7 = assay: Growth inhibition of human MCF7 cells after 48 hrs; assay type: functional; details: MCF7, 48 h
M21 [1] = assay: Alkylation of beta tubulin in human M21 cells at 25 uM after 16 to 24 hrs; assay type: functional, cell-based
HT-29 = assay: Growth inhibition of human HT29 cells after 48 hrs; assay type: functional; details: HT-29, 48 h
M21 [2] = assay: Growth inhibition of human M21 cells after 48 hrs; assay type: functional; details: M21, 48 h
M21 [3] = assay: Alkylation of beta tubulin in human M21 cells at 25 uM; assay type: functional, cell-based
M21 [4] = assay: Cell cycle arrest by accumulation at G2/M phase in human M21 cells after 24 hrs by flow cytometry; assay type: functional, cell-based

Compound	GI50 (MCF7) [µM]	Activity (M21 [1])	GI50 (HT-29) [µM]	GI50 (M21 [2]) [µM]	Activity (M21 [3])	Activity (M21 [4])
Cc1ccc(NC2=NCCO2)cc1C	5.7	Active	2.7	5.1	–	–
Cc1cccc(NC(=O)NCCCl)c1	–	–	39	81	–	–
CC(C)(C)c1ccc(NC(=O)NCCCl)cc1	6.2	–	2.3	4.3	–	–
Cc1ccc(NC2=NCCO2)cc1	27	–	13	22	–	–
COc1cc2c(c(OC)c1OC)-c1ccc(OC)c(=O)cc1[C@@H](NC(C)=O)CC2 [COLCHICINE]	0.009	–	0.004	0.015	–	–
Cc1ccccc1NC(=O)NC(=O)CCl	10.6	–	9.8	6.9	inactive	–
Cc1ccc(C)c(NC(=O)NCCCl)c1	–	–	67	–	–	–
Cc1cccc(C)c1NC(=O)NC(=O)CCl	7.4	–	6.6	6.3	inactive	–
c1ccc2c(c1)-c1ccccc1C2NC1=NCCO1	11	–	15	17	–	–
Cc1ccccc1NC1=NCCO1	21	–	13	18	–	–
CC(C)(C)c1ccc(NC(=O)NC(=O)CCl)cc1	4.8	–	3.3	1.1	–	–
Cc1cccc(NC2=NCCO2)c1C	15	–	9	17	inactive	–
Cc1ccc(NC(=O)NCCCl)cc1	44	–	16	33	–	–
Cc1ccc(NC(=O)NC(=O)CCl)c(C)c1	8.6	–	11	7.4	inactive	–
Cc1ccc(NC2=NCCO2)c(C)c1	23	–	15	26	inactive	–
O=C(CCl)NC(=O)Nc1ccc(I)cc1	6.8	–	6.9	4.2	–	–
Ic1ccc(NC2=NCCO2)cc1	2.9	Active	1.3	2	–	–
Cc1ccc(NC(=O)NCCCl)c(C)c1	–	–	78	–	–	–
O=C(CCl)NC(=O)Nc1ccc2c(c1)Cc1ccccc1-2	5	–	13	4.8	inactive	–
O=C(CCl)NC(=O)Nc1cccc2c1CCC2	2.2	–	3.2	4.9	inactive	–
Cc1cc(C)cc(NC(=O)NCCCl)c1	31	–	8.5	16	–	–
O=C(NCCCl)Nc1ccc2c(c1)CCC2	17	–	4.7	8.9	–	Active

Compound	GI50 (MCF7) [µM]	Activity (M21 [1])	GI50 (HT-29) [µM]	GI50 (M21 [2]) [µM]	Activity (M21 [3])	Activity (M21 [4])
Cc1cc(C)cc(NC2=NCCO2)c1	19	–	7	12	–	–
Cc1cccc(NC2=NCCO2)c1	52	–	33	61	–	–
c1cc2c(c(NC3=NCCO3)c1)CCC2	26	–	16	30	–	–
c1cc2c(cc1NC1=NCCO1)CCC2	9.1	Active	4.9	8.1	–	Active
Cc1cc(C)cc(NC(=O)NC(=O)CCl)c1	4.3	–	6.1	3.7	inactive	–
CC[C@]1(O)C[C@@H]2CN(CCc3c([nH]c4ccccc34)[C@@](C(=O)OC)(c3cc4c(cc3OC)N(C)[C@H]3[C@@](O)(C(=O)OC)[C@H](OC(C)=O)[C@]5(CC)C=CCN6CC[C@]43[C@@H]65)C2)C1 [VINBLASTINE]	0.002	–	0.002	0.01	–	–
O=C(NCCCl)NC1c2ccccc2-c2ccccc21	21	–	16	38	–	–
O=C(NCCCl)Nc1ccc(I)cc1	6	–	1.9	3.9	–	–
Cc1ccc(NC(=O)NCCCl)cc1C	12	–	4.2	8.4	–	–
O=C(NCCCl)Nc1ccc2c(c1)Cc1ccccc1-2	14.2	–	2.3	5.1	–	Active
O=C(CCl)NC(=O)Nc1ccc2c(c1)CCC2	4	–	7	1.7	inactive	–
Cc1ccc(NC(=O)NC(=O)CCl)cc1C	5.5	–	6.9	4.3	inactive	–
Cc1cccc(C)c1/N=C1/NCCO1	23	–	15	27	–	–
Cc1ccc(C)c(NC(=O)NC(=O)CCl)c1	5.8	–	6.7	3.8	inactive	–
CC(C)(C)c1ccc(NC2=NCCO2)cc1	3	Active	1.5	2.4	–	–
O=C(NCCCl)Nc1cccc2c1CCC2	–	–	95	–	–	–
Cc1cccc(NC(=O)NC(=O)CCl)c1C	6.5	–	6	4.7	inactive	–
O=C(CCl)NC(=O)NC1c2ccccc2-c2ccccc21	4.8	–	8.6	3.4	inactive	–
Cc1cccc(NC(=O)NC(=O)CCl)c1	6.1	–	9	4	inactive	–
CC(=O)O[C@H]1C(=O)[C@@]2(C)[C@H]([C@H](OC(=O)c3ccccc3)[C@]3(O)C[C@H](OC(=O)[C@H](O)[C@@H](NC(=O)c4ccccc4)c4ccccc4)C(C)=C1C3(C)C)[C@]1(OC(C)=O)CO[C@@H]1C[C@@H]2O [PACLITAXEL]	0.054	–	0.015	0.037	–	–
Cc1ccc(NC(=O)NC(=O)CCl)cc1	7.5	–	10	4.9	inactive	–
Cc1ccc(C)c(NC2=NCCO2)c1	72	–	44	73	–	–
